In US4308201A, “Phenylalanylvalylarginine derivative, process for producing same and method for measuring activity of enzymes using same” (Torii & Co., Ltd., priority 1978, dated 1981):
Residues, ends and D or L forms follow the SMILES beside them. *: point of attachment. pNA = O=[N+]([O-])c1ccc(N*)cc1; Bz = O=C(c1ccccc1)*

Experiments:
Format in all cases: biochemical
thrombin = assay: Measurement of the activity of thrombin with the compound as substrate (naphthol liberated, FVB colour, absorbance); details: for relative sensitivity, Thrombin: methods of Example 3 and Comparative Example 2, p-nitroanilide substrate = 1.0
Procedure: To 1.7 ml of 50 mM phosphate buffer solution (pH 7.0) were added 0.1 ml of thrombin at various concentrations and 0.2 ml of N-benzoyl-L-phenylalanyl-L-valyl-L-arginine 1-naphthyl ester hydrochloride solution (1.5 mM), and the resulting mixture was subjected to incubation at 25° C. for 30 min. The mixture was cooled in iced water, and 0.1 ml of 1% FVB was added thereto. The resulting mixture was allowed to stand at 0° C. for 10 min, and 1 ml of glacial acetic acid was further added thereto. The color thus developed was measured as absorbance (505 nm) by means of a spectrophotometer, thereby determining the amount of the naphthol liberated by hydrolysis with the enzyme. As a control, the buffer solution same as above but free from thrombin was used. The amount of the naphthol liberated corresponded to the activity of the enzyme.
To 0.1 ml of thrombin were added 0.3 ml of Nα-tosyl-L-arginine methyl ester hydrochloride solution (10 micromoles/0.4 ml of 5% DMSO) and 0.6 ml of phosphate buffer solution (pH 7.4), and the resulting mixture was subjected to incubation at 37° C. for 30 min, after which 1.5 ml of a hydroxylamine solution (a mixture of equal amounts of 2 M NH2 OH hydrochloride and 3.5 M NaOH) was added thereto. The resulting mixture was allowed to stand at room temperature for 15 min. Thereto were added 1 ml of 18% trichloroacetic acid solution, 1 ml of 4 N hydrochloric acid, and 1 ml of 10% ferric chloride solution. The resulting mixture was thoroughly stirred and then centrifuged at 3,000 r.p.m. for 10 min. The color thus developed of the supernatant was measured as absorbance (530 l nm) by means of a spectrophotometer. The value obtained corresponds to the amount of the substrate remaining unhydrolyzed with thrombin, and therefore, and activity of the enzyme corresponds to the difference between the value obtained when no enzyme was used (control) and the value obtained after the enzyme reaction.
To 2.15 ml of […] tris HCl buffer solution (pH 8.0) were added 0.1 ml of thrombin at various concentrations and 0.25 ml of an N-benzoyl-L-phenylalanyl-L-valyl-L-arginine p-nitroanilide hydrochloride solution (1mM/H2 O), and the resulting mixture was subjected to incubation at 37° C. for 30 min. To the mixture was added 0.3 ml of glacial acetic acid, and the color developed was measured as absorbance (405 nm) by means of a spectrophotometer.

Factor Xa = assay: Measurement of the activity of Factor Xa with the compound as substrate; details: methods of Example 3 and Comparative Example 2; p-nitroanilide substrate = 1.0
Kallikrein Plasma = assay: Measurement of the activity of plasma kallikrein with the compound as substrate; details: methods of Example 3 and Comparative Example 2; p-nitroanilide substrate = 1.0
Urokinase = assay: Measurement of the activity of urokinase with the compound as substrate; details: methods of Example 3 and Comparative Example 2; p-nitroanilide substrate = 1.0
Kallikrein Tissue = assay: Measurement of the activity of tissue kallikrein with the compound as substrate; details: methods of Example 3 and Comparative Example 2; p-nitroanilide substrate = 1.0

Row | SMILES | relative sensitivity, Thrombin (thrombin) | relative sensitivity, Factor Xa (Factor Xa) | relative sensitivity, Kallikrein Plasma (Kallikrein Plasma) | relative sensitivity, Urokinase (Urokinase) | relative sensitivity, Kallikrein Tissue (Kallikrein Tissue) | sensitivity relative to that of Nα-tosyl-L-arginine methyl ester (thrombin; thrombin activity measured with the compound as substrate) | detection sensitivity relative to Comparative Example 2 (thrombin; versus N-benzoyl-L-phenylalanyl-L-valyl-L-arginine p-nitroanilide hydrochloride as substrate, standard curves of the drawing) | detection sensitivity relative to Comparative Example 1 (thrombin; versus Nα-tosyl-L-arginine methyl ester hydrochloride as substrate (hydroxamate method), standard curves of the drawing)
1 | CC(C)[C@H](NC(=O)[C@H](Cc1ccccc1)NC(=O)c1ccccc1)C(=O)N[C@@H](CCCNC(=N)N)C(=O)Nc1ccc([N+](=O)[O-])cc1.Cl [N-benzoyl-L-phenylalanyl-L-valyl-L-arginine p-nitroanilide hydrochloride, reference compound] (Bz-Phe-Val-Arg-pNA) | 1.0 | 1.0 | 1.0 | 1.0 | 1.0 |  |  | 
2 | CC(C)[C@H](NC(=O)[C@H](Cc1ccccc1)NC(=O)c1ccccc1)C(=O)N[C@@H](CCCNC(=N)N)C(=O)Oc1cccc2ccccc12.Cl [N-benzoyl-L-phenylalanyl-L-valyl-L-arginine 1-naphthyl ester hydrochloride] | 5.0 | 15 | 12.5 | 40 | 30 | about 31 times | about 5 times | about 30 times
